Laboratory results: patent US8263754B2, “Amphiphiles for protein solubilization and stabilization” (Wisconsin Alumni Research Foundation, priority 2008, dated 2012)

Assay: Critical micelle concentration (CMC) by dye solubilization (Orange OT or DPH)
Assay type: physicochemical
Conditions: determined by DPH (diphenylhexatriene) or Orange OT
Excerpt: Aqueous solubilization of Orange OT was used to determine critical micelle concentrations (CMC). […] Facile self-association of these amphiphiles under these conditions may be hindered by the hydrophilicity and/or steric bulk of the triglucoside and dimaltoside headgroups.
The Critical Micelle Concentrations (CMCs) of compounds of the invention can be determined by standard techniques known to those of skill in the art. For example, CMCs of the carbohydrate-based amphiphiles described herein can be determined by monitoring uptake of a dye (e.g., Orange OT or 1,6-diphenylhexatriene) with increasing detergent concentration, monitored by UV-visible or fluorescence spectroscopy.

SMILES | CMC [mM] | CMC (%)
CCCCCCCCC(=O)NC(CO[C@@H]1O[C@H](CO)[C@@H](O)[C@H](O)[C@H]1O)CO[C@@H]1O[C@H](CO)[C@@H](O)[C@H](O)[C@H]1O [C8-MPA2] | 77 | 4.3
CCCCCCCCCCC(=O)NC(CO[C@@H]1O[C@H](CO)[C@@H](O)[C@H](O)[C@H]1O)CO[C@@H]1O[C@H](CO)[C@@H](O)[C@H](O)[C@H]1O [C10-MPA 2] | 8.1 | 0.47
CCCCCCCCCCCCCCC(=O)NC(CO[C@@H]1O[C@H](CO)[C@@H](O)[C@H](O)[C@H]1O)CO[C@@H]1O[C@H](CO)[C@@H](O)[C@H](O)[C@H]1O [C14-MPA2] | 0.17 | 0.011
CC(C)(C)CC(C)(C)c1ccc(OCC(=O)NC(COC2OC(CO)C(O)C(O)C2O)COC2OC(CO)C(O)C(O)C2O)cc1 (centres unmarked) [CGT2] | 2.6 | 0.17
O=C(NCCOC1OC(CO)C(OC2OC(CO)C(O)C(O)C2O)C(O)C1O)C(c1ccccc1)c1ccccc1 (centres unmarked) [DPA 68] | 85.3 | 4.95
O=C(NCCO[C@@H]1O[C@H](CO)[C@@H](O[C@H]2O[C@H](CO)[C@@H](O)[C@H](O)[C@H]2O)[C@H](O)[C@H]1O)C(C1CCCCC1)C1CCCCC1 [DPA 69] | 13.9 | 0.82
CCCCC(CCCC)(CC(=O)NC(CO[C@@H]1O[C@H](CO)[C@@H](O)[C@H](O)[C@H]1O)CO[C@@H]1O[C@H](CO)[C@@H](O)[C@H](O)[C@H]1O)c1ccc(I)cc1 [TPA 28] | 0.89 | 0.07
CCCCC(CCCC)(CC(=O)NC(COC1OC(CO)C(O)C(O)C1O)COC1OC(CO)C(O)C(O)C1O)c1ccc(C)cc1 (centres unmarked) [TPA 31] | 2.4 | 0.16
CCCCC(CCCC)(CC(=O)NC(CO[C@@H]1O[C@H](CO)[C@@H](O)[C@H](O)[C@H]1O)CO[C@@H]1O[C@H](CO)[C@@H](O)[C@H](O)[C@H]1O)c1ccc(C(C)C)cc1 [TPA 32] | 1.3 | 0.091
CCCCC(CCCC)(CC(=O)NC(CO[C@@H]1O[C@H](CO)[C@@H](O)[C@H](O)[C@H]1O)CO[C@@H]1O[C@H](CO)[C@@H](O)[C@H](O)[C@H]1O)c1ccc(C(C)(C)C)cc1 [TPA 33] | 0.42 | 0.03
CCCCC(CCCC)(CC(=O)NC(COC1OC(CO)C(O)C(O)C1O)COC1OC(CO)C(O)C(O)C1O)c1ccc(-c2ccccc2)cc1 (centres unmarked) [TPA 34] | 0.14 | 0.01
CCCCCC(CCCCC)(CC(=O)NC(CO[C@@H]1O[C@H](CO)[C@@H](O)[C@H](O)[C@H]1O)CO[C@@H]1O[C@H](CO)[C@@H](O)[C@H](O)[C@H]1O)c1ccccc1 [TPA 35] | 1.2 | 0.083
CCCCCCC(CCCCCC)(CC(=O)NC(CO[C@@H]1O[C@H](CO)[C@@H](O)[C@H](O)[C@H]1O)CO[C@@H]1O[C@H](CO)[C@@H](O)[C@H](O)[C@H]1O)c1ccccc1 [TPA 36] | 0.56 | 0.04
O=C(NCCO[C@H]1OC(CO)[C@H](O)C(O)[C@H]1O)C12CC3CC(CC(C3)C1)C2 (some centres unmarked) [TPA 41] | 180 | 6.9
CC12CC3CC(C)(C1)CC(CC(=O)NCCO[C@H]1OC(CO)[C@H](O[C@@H]4OC(CO)[C@H](O)C(O)[C@H]4O)C(O)[C@H]1O)(C3)C2 (some centres unmarked) [TPA 44] | 19.1 | 1.1
CCCC[C@]1(CC(=O)NC(CO[C@H]2OC(CO)[C@H](O)C(O)[C@H]2O)CO[C@H]2OC(CO)[C@H](O)C(O)[C@H]2O)C2C[C@@H]3C[C@H](C2)C[C@@H]1C3 (some centres unmarked) [TPA 45] | 6.4 | 0.41
CCCC[C@]1(CC(=O)NCCO[C@H]2OC(CO)[C@H](O[C@@H]3OC(CO)[C@H](O)C(O)[C@H]3O)C(O)[C@H]2O)C2C[C@@H]3C[C@H](C2)C[C@@H]1C3 (some centres unmarked) [TPA 46] | 2.6 | 0.16
CC(CC(=O)NC(CO[C@@H]1O[C@H](CO)[C@@H](O)[C@H](O)[C@H]1O)CO[C@@H]1O[C@H](CO)[C@@H](O)[C@H](O)[C@H]1O)(C1CCCCC1)C1CCCCC1 [TPA 47] | 4.7 | 0.3
CCCCC(CC(=O)NC(CO[C@@H]1O[C@H](CO)[C@@H](O)[C@H](O)[C@H]1O)CO[C@@H]1O[C@H](CO)[C@@H](O)[C@H](O)[C@H]1O)(C1CCCCC1)C1CCCCC1 [TPA 49] | 0.64 | 0.04

Other lines, results leading:

CMC [mM] | CMC (%) | SMILES
3.7 | 0.34 | CCCCC(CCCC)(CC(=O)NC(CO[C@@H]1O[C@H](CO)[C@@H](O)[C@H](O)[C@H]1O)(CO[C@@H]1O[C@H](CO)[C@@H](O)[C@H](O)[C@H]1O)CO[C@@H]1O[C@H](CO)[C@@H](O)[C@H](O)[C@H]1O)c1ccc(-c2ccccc2)cc1 [TPA13]
3.4 | 0.31 | CCCCC(CCCC)(CC(=O)NC(CO[C@@H]1O[C@H](CO)[C@@H](O)[C@H](O)[C@H]1O)(CO[C@@H]1O[C@H](CO)[C@@H](O)[C@H](O)[C@H]1O)CO[C@@H]1O[C@H](CO)[C@@H](O)[C@H](O)[C@H]1O)c1ccc(C(C)(C)C)cc1 [TPA14]
1.7 | 0.18 | CCCCC(CCCC)(CC(=O)NC(COC1OC(CO)C(OC2OC(CO)C(O)C(O)C2O)C(O)C1O)COC1OC(CO)C(OC2OC(CO)C(O)C(O)C2O)C(O)C1O)c1ccc(-c2ccccc2)cc1 (centres unmarked) [TPA15]
3.3 | 0.34 | CCCCC(CCCC)(CC(=O)NC(CO[C@@H]1O[C@H](CO)[C@@H](O[C@H]2O[C@H](CO)[C@@H](O)[C@H](O)[C@H]2O)[C@H](O)[C@H]1O)CO[C@@H]1O[C@H](CO)[C@@H](O[C@H]2O[C@H](CO)[C@@H](O)[C@H](O)[C@H]2O)[C@H](O)[C@H]1O)c1ccc(C(C)(C)C)cc1 [TPA16]
1.4 | 0.13 | CCCCCCC(CCCCCC)(CC(=O)NC(CO[C@@H]1O[C@H](CO)[C@@H](O)[C@H](O)[C@H]1O)(CO[C@@H]1O[C@H](CO)[C@@H](O)[C@H](O)[C@H]1O)CO[C@@H]1O[C@H](CO)[C@@H](O)[C@H](O)[C@H]1O)c1ccccc1 [TPA17]
0.3 | 0.03 | CCCCCCC(CCCCCC)(CC(=O)NC(CO[C@@H]1O[C@H](CO)[C@@H](O[C@H]2O[C@H](CO)[C@@H](O)[C@H](O)[C@H]2O)[C@H](O)[C@H]1O)CO[C@@H]1O[C@H](CO)[C@@H](O[C@H]2O[C@H](CO)[C@@H](O)[C@H](O)[C@H]2O)[C@H](O)[C@H]1O)c1ccccc1 [TPA18]
3.7 | 0.32 | CCCCC(CCCC)(CC(=O)NC(CO[C@@H]1O[C@H](CO)[C@@H](O)[C@H](O)[C@H]1O)(CO[C@@H]1O[C@H](CO)[C@@H](O)[C@H](O)[C@H]1O)CO[C@@H]1O[C@H](CO)[C@@H](O)[C@H](O)[C@H]1O)C1CCCCC1 [TPA22]
1.9 | 0.19 | CCCCC(CCCC)(CC(=O)NC(CO[C@@H]1O[C@H](CO)[C@@H](O[C@H]2O[C@H](CO)[C@@H](O)[C@H](O)[C@H]2O)[C@H](O)[C@H]1O)CO[C@@H]1O[C@H](CO)[C@@H](O[C@H]2O[C@H](CO)[C@@H](O)[C@H](O)[C@H]2O)[C@H](O)[C@H]1O)C1CCCCC1 [TPA24]
4.1 | 0.26 | CCCCC(CCCC)(CC(=O)NC(CO[C@@H]1O[C@H](CO)[C@@H](O)[C@H](O)[C@H]1O)CO[C@@H]1O[C@H](CO)[C@@H](O)[C@H](O)[C@H]1O)CC(C)C [TPA25]
